Experimental data: paper PMC11921344, “Antimicrobial peptide DiPGLa-H exhibits the most outstanding anti-infective activity among the PGLa variants based on a systematic comparison” (Applied and Environmental Microbiology, 2025)
Read-outs that look alike come from different tables or passages of the source. Where no end group is shown, it is not given here.

How the values were obtained:
E. coli ATCC25922 = type: cell-based, Escherichia coli
Method: (§1) The antibacterial activity was evaluated using a standard MIC and MBC assay according to the National Committee for Clinical Laboratory Standards (NCCLS). MIC, MBC assay, and time-kill curves for the optimal peptide are provided in the Supplementary Materials.
Antimicrobial Activity Assays. The antibacterial activity of the peptides was determined using a method designed from the National Committee for Clinical Laboratory Standards (NCCLS) in the United States. All the strains used in the experiment are preserved in the laboratory. Briefly, log phase bacterial cells were diluted in MHB to a final concentration of 0.5-1x10^5 CFU/mL. Subsequently, 50μL of different concentrations of polypeptides were incubated with 50 μL of bacterial solution in sterile 96-well plates. In the minimum inhibitory concentration (MIC) assay, […], and the minimum inhibitory concentration (MIC) was determined by the absorbance at 492 nm of the microplate reader, and the minimum inhibitory concentration (MIC) inhibited 95% of bacteria grow. Determination of minimum bactericidal concentration: the plate was incubated at 37°C for 4 hours, 50 μL of the mixture was taken out of each well, diluted with an appropriate amount of PBS, smeared on the agar plate, and cultured overnight. Colonies were counted and the initial CFU/well was retrospectively calculated the following day. The lowest concentration of peptide that kills 99.9% of bacterial cells is the minimum bactericidal concentration (µM), Each test was replicated at least 3 times.

A. baumannii ATCC19606 = type: cell-based, Acinetobacter baumannii
Method: as §1
(§2) Antimicrobial Activity Assays. The antibacterial activity of the peptides was determined using a method designed from the National Committee for Clinical Laboratory Standards (NCCLS) in the United States. All the strains used in the experiment are preserved in the laboratory. Briefly, log phase bacterial cells were diluted in MHB to a final concentration of 0.5-1x10^5 CFU/mL. Subsequently, 50μL of different concentrations of polypeptides were incubated with 50 μL of bacterial solution in sterile 96-well plates. In the minimum inhibitory concentration (MIC) assay, the plate was incubated at 37°C for 24 h, and the minimum inhibitory concentration (MIC) was determined by the absorbance at 492 nm of the microplate reader, and the minimum inhibitory concentration (MIC) inhibited 95% of bacteria grow. Determination of minimum bactericidal concentration: the plate was incubated at 37°C for 4 hours, 50 μL of the mixture was taken out of each well, diluted with an appropriate amount of PBS, smeared on the agar plate, and cultured overnight. Colonies were counted and the initial CFU/well was retrospectively calculated the following day. The lowest concentration of peptide that kills 99.9% of bacterial cells is the minimum bactericidal concentration (µM), Each test was replicated at least 3 times.

S. aureus Mu50 = type: cell-based, Staphylococcus aureus MRSA
Method: as §1, §2

E. coli K88 infection = assay: Mouse abdominal infection model; type: in vivo, C57BL/6 mice; conditions: for number of mice that survived: K88+DiPGLa-H
Method: (§3) Six-to-eight-week-old C57BL/6 male mice were selected for the experiment and housed in cages under specific pathogen-free conditions with water and laboratory mouse chow. Each strain was divided into three groups, and each group and the second group were required to be injected intraperitoneally with a lethal amount of bacterial fluid with a working fluid concentration of 64 µg/mL of DiPGLa-H, and the third group was injected with PBS. […] Then homogenized and serially diluted with PBS to 10^7 times. 100 µL of the gradient dilution was applied to the TSA plate, which was subsequently incubated at 37°C overnight and counted the next day for survival analysis using GraphPad Prism software. The protocol and use of animals were approved by the Institutional Animal Care and Use Committee of the Northwest A&F University.

S. aureus Mu50 infection = assay: Mouse abdominal infection model; type: in vivo, C57BL/6 mice; conditions: for number of mice that survived: Mu50+DiPGLa-H
Method: as §3

[1] = heart, liver, spleen, 1 day after infection, 5 mice per group

KIAKVALKALKIAKVALKAL-NH2 (C-terminus assumed) [DiPGLa-H]
MBC E. coli ATCC25922 (E. coli ATCC25922; ATCC25922, 4 h): 8 µM | MIC E. coli ATCC25922 (E. coli ATCC25922; ATCC25922, 24 h): 8 µM | MBC A. baumannii ATCC19606 (A. baumannii ATCC19606; ATCC19606, 4 h): 4 µM | MIC A. baumannii ATCC19606 (A. baumannii ATCC19606; ATCC19606, 24 h): 1 µM | MBC S. aureus Mu50 (S. aureus Mu50; Mu50, 4 h): 16 µM | MIC S. aureus Mu50 (S. aureus Mu50; Mu50, 24 h): 8 µM | MIC S. aureus Mu50 (S. aureus Mu50; lowest concentration inhibiting 95% of growth, MHB, 0.5-1x10^5 CFU/mL, 37°C 24 h, absorbance 492 nm, three independent experiments): 8 µM | number of mice that survived (E. coli K88 infection; day 1, of 16 mice): 13 | number of mice that survived (E. coli K88 infection; day 2, of 16 mice): 12 | number of mice that survived (E. coli K88 infection; day 3, of 16 mice): 10 | number of mice that survived (E. coli K88 infection; day 4, of 16 mice): 9 | number of mice that survived (E. coli K88 infection; day 5, of 16 mice): 9 | number of mice that survived (E. coli K88 infection; day 6, of 16 mice): 9 | number of mice that survived (E. coli K88 infection; day 7, of 16 mice): 9 | number of mice that survived (E. coli K88 infection; day 8, of 16 mice): 9 | reduction of bacterial loads in the organs (E. coli K88 infection; [1]): 1,000 fold | increase of survival rate of mice (S. aureus Mu50 infection; C57BL/6 male mice, intraperitoneal lethal Mu50, DiPGLa-H working concentration 64 µg/mL, 16 mice per group): 31% | number of mice that survived (S. aureus Mu50 infection; day 1, of 16 mice): 12 | number of mice that survived (S. aureus Mu50 infection; day 2, of 16 mice): 11 | number of mice that survived (S. aureus Mu50 infection; day 3, of 16 mice): 10 | number of mice that survived (S. aureus Mu50 infection; day 4, of 16 mice): 8 | number of mice that survived (S. aureus Mu50 infection; day 5, of 16 mice): 6 | number of mice that survived (S. aureus Mu50 infection; day 6, of 16 mice): 6 | number of mice that survived (S. aureus Mu50 infection; day 7, of 16 mice): 5 | number of mice that survived (S. aureus Mu50 infection; day 8, of 16 mice): 5 | reduction of bacterial loads in the organs (S. aureus Mu50 infection; [1]): 100 fold | fold higher TIall vs PGLa-B1: 64 fold
